# Measured values published in publication PMC4269415, “Replication Attempt: “Effect of BMAP-28 Antimicrobial Peptides on Leishmania Major Promastigote and Amastigote Growth: Role of Leishmanolysin in Parasite Survival”” (PLoS ONE, 2014).
# pIC50: −log10 of the molar value. Where “and” joins values, the source holds several entries; their conditions need not be identical. Equal values may be shown once. Read-outs that look alike come from different tables or passages of the source. Square brackets hold non-standard residues; d marks the D form. Ends that are not written are not given here. Peptide text beside a SMILES is read from it.
# Tests used:
# [1] = system: Leishmania major promastigotes; conditions: 4 h, % of untreated control, determined from bar graph Fig. 1A, ref Lynn et al. [5], cited from earlier work
# Protocol: Table 1 Promastigote viability assay of Leishmania major when treated with 0.5 µM or 2 µM BMAP-28 variants. | column: % Viability (mean) || This study describes an attempt to replicate experiments from the paper “Effect of BMAP-28 Antimicrobial Peptides on Leishmania major Promastigote and Amastigote Growth: Role of Leishmanolysin in Parasite Survival,” which was submitted to the Reproducibility Initiative for independent validation. The cathelicidin bovine myeloid antimicrobial peptide 28 (BMAP-28) and its isomers were previously shown to have potent antiparasitic activity against Leishmania major.
# [2] = system: Leishmania major promastigotes (strain MHOM/SN/74/SD); format: cell-based; conditions: for % Viability (mean), replication: % of untreated control, calculated from the dose response curve; for % Viability (mean), combined original and replication: meta-analysis combining original and replication studies; for d Effect Size (Cohen's d), combined: original and replication combined
# Protocol: The promastigote viability assays were conducted by the Anti-Infectives Screening Core Facility at New York University School of Medicine (https://www.scienceexchange.com/facilities/anti-infectives-screening-and-insectary-core-facilities-nyu). All assays were performed by investigators blinded to the reagents under study. 500 µM stocks of peptides were made by resuspending 4 mg of each peptide (M.W. 3131.92) in 2.554 mL of distilled sterile water. Each peptide was tested in triplicate three independent times at 50 µM, 25 µM, 12.5 µM, 6.25 µM, 3.125 µM, 1.5625 µM, 0.78125 µM, and 0.390625 µM. L. major strain MHOM/SN/74/SD (ATCC, PRA-384) was used in these studies. These cells were routinely cultured at 26°C in M-199 medium (Gibco, Grand Island, NY), supplemented with 10% heat inactivated fetal calf serum (Hyclone, Logan) and Pen/Strep (Gibco, Grand Island, NY). Mid-log phase promastigotes at concentrations of 5×10^6 per well were seeded in 96-well tissue culture plates. Heat-killed parasites, prepared by incubation at 99°C for 30 minutes, served as positive controls for the viability assays. Peptides were incubated with the cells for 4 hours at 26°C. A 20 µL volume of PrestoBlue (Life Technologies, Carlsbad, CA) was added to each well and incubated at 37°C for 3 hours. Fluorescence at excitation 530 nm and 590 nm emission wavelengths was measured using a plate reader (VICTOR, Perkin Elmer, US). Background fluorescence from media alone controls was subtracted from each reading and promastigote viability was expressed as a percentage of the untreated control.
# An independent-samples t-test was conducted to compare promastigote viability in peptide treated and untreated conditions. A Fisher combined probability test was used to combine the original and replication studies values into a single combined study value for each peptide and peptide concentration. To provide a standardized measure of the effect we used cohen's d.
# [3] = system: Leishmania major promastigotes; experiment: Promastigote viability assay of the original study (Fig. 1A of Lynn et al.); format: cell-based; conditions: from data of ref Lynn et al. [5]
# [4] = system: mammalian epithelial cells and monocytes; conditions: cited from earlier work
# [5] = 0.5 µM peptide, 4 h, three biological replicates
# [6] = 2 µM peptide, 4 h, three biological replicates
Molecule,"% Viability (mean), original study ([1]; 0.5 µM peptide) [%]","% Viability (mean), original study ([1]; 2 µM peptide)","% Viability (mean), replication [2, 5] [%]","% Viability (mean), combined original and replication ([2]; 0.5 µM peptide)","d Effect Size (Cohen's d), combined ([2]; 2 µM peptide vs untreated)","% Viability (mean), replication [2, 6] [%]",pIC50 ([2]; 4 h),IC90 ([2]; 4 h) [µM],"d Effect Size (Cohen's d), original study ([3]; 0.5 µM peptide vs untreated)","d Effect Size (Cohen's d), original study ([3]; 2 µM peptide vs untreated)",toxicity to mammalian epithelial cells and monocytes (in words) [4],"d Effect Size (Cohen's d), replication ([2]; 0.5 µM peptide vs untreated)","d Effect Size (Cohen's d), combined ([2]; 0.5 µM peptide vs untreated)","d Effect Size (Cohen's d), replication ([2]; 2 µM peptide vs untreated)","% Viability (mean), combined original and replication ([2]; 2 µM peptide) [%]","pIC50 ([2]; 4 h at 26°C, PrestoBlue fluorescence, dose-response 0.39-50 µM, three biological replicates in triplicate, read-out: IC50, promastigote viability)","IC90 ([2]; 4 h at 26°C, PrestoBlue fluorescence, dose-response 0.39-50 µM, three biological replicates, read-out: IC90, promastigote viability) [µM]"
CC[C@@H](C)[C@@H](NC(=O)[C@H]1CCCN1C(=O)CNC(=O)[C@@H](Cc1ccc(O)cc1)NC(=O)[C@@H](CCCCN)NC(=O)[C@@H](CCCCN)NC(=O)[C@@H](Cc1c[nH]c2ccccc12)NC(=O)[C@@H](C)NC(=O)[C@@H](CCCNC(=N)N)NC(=O)[C@@H](CC(C)C)NC(=O)[C@H](NC(=O)[C@@H](CCCCN)NC(=O)[C@@H](CCCNC(=N)N)NC(=O)CNC(=O)[C@@H](CC(C)C)NC(=O)[C@@H](CO)NC(=O)[C@@H](CCCNC(=N)N)NC(=O)[C@@H](CC(C)C)NC(=O)CNC(=O)CN)[C@H](C)CC)C(=O)N[C@@H](C(=O)N[C@@H](C(=O)N1CCC[C@@H]1C(=O)N[C@@H](C(=O)N[C@@H](C(=O)N[C@H](CCCNC(=N)N)C(=O)N[C@@H](C(=O)NCC(=O)O)[C@H](C)CC)[C@H](C)CC)[C@H](C)CC)C(C)C)[C@H](C)CC [D-BMAP-28] (H-GG[dL][dR][dS][dL]G[dR][dK][dI][dL][dR][dA][dW][dK][dK][dY]G[dP][dI][dI][dV][dP][dI][dI][dR][dI]G-OH; N-terminus assumed),68.75,6% and 5.50%,92.40,not significantly modified,16.67,73.26,5.45,9.85,2.55,37.8,–,–,–,–,–,–,–
CC[C@@H](C)[C@@H](NC(=O)CN)C(=O)N[C@H](CCCNC(=N)N)C(=O)N[C@@H](C(=O)N[C@@H](C(=O)N1CCC[C@@H]1C(=O)N[C@@H](C(=O)N[C@@H](C(=O)N[C@@H](C(=O)N1CCC[C@@H]1C(=O)NCC(=O)N[C@H](Cc1ccc(O)cc1)C(=O)N[C@H](CCCCN)C(=O)N[C@H](CCCCN)C(=O)N[C@H](Cc1c[nH]c2ccccc12)C(=O)N[C@H](C)C(=O)N[C@H](CCCNC(=N)N)C(=O)N[C@H](CC(C)C)C(=O)N[C@@H](C(=O)N[C@H](CCCCN)C(=O)N[C@H](CCCNC(=N)N)C(=O)NCC(=O)N[C@H](CC(C)C)C(=O)N[C@H](CO)C(=O)N[C@H](CCCNC(=N)N)C(=O)N[C@H](CC(C)C)C(=O)NCC(=O)NCC(=O)O)[C@H](C)CC)[C@H](C)CC)[C@H](C)CC)C(C)C)[C@H](C)CC)[C@H](C)CC [RI-BMAP-28] (H-G[dI][dR][dI][dI][dP][dV][dI][dI][dP]G[dY][dK][dK][dW][dA][dR][dL][dI][dK][dR]G[dL][dS][dR][dL]GG-OH; N-terminus assumed),103.00,18% and 17.50%,94.64,not significantly modified,6.31,76.64,5.34,20,−1.20,6.88,limited toxicity,–,–,–,–,–,–
"GGLRSLGRKILRAWKKYGPIIVPIIRI-NH2 [L-BMAP-28-NH2, amidated L-BMAP-28 peptide]",–,–,95.55,99.40%,2.65,94.15,–,–,–,–,–,0.62,0.11,0.81,75.45,5.23,10.2
GGLRSLGRKILRAWKKYGPIIVPIIRIG [L-BMAP-28],–,–,–,–,–,–,4.77,25.2,–,–,–,–,–,–,–,–,–
